The term pIC50 denotes the negative decadic logarithm of the IC50, by convention in mol/L.

pIC50: −log10 of the molar value.

Consider 8 compounds from US20120142672A1, “HETEROCYCLIC COMPOUND AND USE THEREOF” (priority 2009, published 2012).

One assay deals with Aβ42 production. Nature of the assay: Measurement of amyloid β production inhibition rate using primary nerve cell. The format is cell-based. The conditions noted are these: Rattus norvegicus, 72 h, primary nerve cells from cerebral cortex of SD rat fetus; cultured 3 days with compound; sandwich ELISA BNT77-BC05 of culture supernatant; read-out: Aβ42 production inhibitory activity IC50. How it is done: (1) Measurement of Amyloid β Production Inhibition Rate Using Primary Nerve Cell
The primary nerve cells were collected from the cerebral cortex of rat fetus (CLEA Japan, Inc.: SD rat, fetal life 17 days of age), and suspended in a neurobasal medium containing B27 supplement, L-glutamine, penicillin-streptomycin (manufactured by Invitrogen) at 500,000 cells/mL. Then, the suspension was seeded in poly L-lysine-coated 96 well plate (manufactured by SUMITOMO BAKELITE) by 100 μL, and cultured at 37° C., 5% CO2 for 7 days. The medium was completely removed, and a new neurobasal medium was added at 75 μL/well. Thereto was added (75 μL/well) a neurobasal medium supplemented with a 2-fold measurement concentration of an evaluation target compound, and the cells were cultured for 3 days. The culture supernatant was collected from each well, diluted as appropriate, applied to sandwich ELISA between BNT77 antibody-BA27 antibody (for Aβ40) and sandwich ELISA between BNT77 antibody-BC05 antibody (for Aβ42), and the amounts of Aβ40 and Aβ42 were measured.
The amyloid β production inhibition rate (%) of the compound was calculated by the following formula.
(1−(amyloid β production amount with addition of compound)/(amyloid β production amount without addition of compound))×100
For the compound `COc1cc(-c2nnc3n2CCCC3Oc2ccc(Cl)c(Cl)c2)ccc1-c1cnc(C)o1` (centres unmarked) [Example 25, 8-(3,4-dichlorophenoxy)-3-[3-methoxy-4-(2-methyl-1,3-oxazol-5-yl)phenyl]-5,6,7,8-tetrahydro[1,2,4]triazolo[4,3-a]pyridine], the pIC50 was 7.06. Take `COc1cc(-c2nnc3n2CCCCC3c2ccc(Cl)c(Cl)c2)ccc1-c1cnc(C)o1` (centres unmarked) [Example 15, 9-(3,4-dichlorophenyl)-3-[3-methoxy-4-(2-methyl-1,3-oxazol-5-yl)phenyl]-6,7,8,9-tetrahydro-5H-[1,2,4]triazolo[4,3-a]azepine]: the pIC50 is 6.77.

For the compound `COc1cc(-c2nnc3n2CCC[C@@H]3c2ccc(Cl)cc2C(F)(F)F)ccc1-c1cnc(C)o1` [Example 34, (R)-(+)-8-[4-chloro-2-(trifluoromethyl)phenyl]-3-[3-methoxy-4-(2-methyl-1,3-oxazol-5-yl)phenyl]-5,6,7,8-tetrahydro[1,2,4]triazolo[4,3-a]pyridine], the pIC50 was 7.38. For `COc1cc(-c2nc3n(n2)CCCC3c2ccccc2C(F)(F)F)ccc1-c1cnc(C)o1` (centres unmarked) [Example 12, 2-[3-methoxy-4-(2-methyl-1,3-oxazol-5-yl)phenyl]-8-[2-(trifluoromethyl)phenyl]-5,6,7,8-tetrahydro[1,2,4]triazolo[1,5-a]pyridine], the pIC50 was 6.82. Still for that read-out and setting: in the case of `COc1cc(-c2nnc3n2CCCC3c2ccc(F)cc2C(F)(F)F)ccc1-c1cnc(C)o1` (centres unmarked) [Example 28, 8-[4-fluoro-2-(trifluoromethyl)phenyl]-3-[3-methoxy-4-(2-methyl-1,3-oxazol-5-yl)phenyl]-5,6,7,8-tetrahydro[1,2,4]triazolo[4,3-a]pyridine] it was 6.70; in that of `COc1cc(-c2nnc3n2CCCC3c2ccccc2C(F)(F)F)ccc1-c1cnc(C)o1` (centres unmarked) [Example 8, 3-[3-methoxy-4-(2-methyl-1,3-oxazol-5-yl)phenyl]-8-[2-(trifluoromethyl)phenyl]-5,6,7,8-tetrahydro[1,2,4]triazolo[4,3-a]pyridine], 7.06.

Still in this assay, the particulars now being: primary nerve cells from cerebral cortex of SD rat fetus; cultured 3 days with compound; sandwich ELISA BNT77-BC05 of culture supernatant; read-out: Aβ42 production inhibitory activity IC50.
As for `COc1cc(-c2nnc3n2CCCC3c2ccc(Cl)c(Cl)c2)ccc1-c1cnc(C)o1` (centres unmarked) [Example 1, 8-(3,4-dichlorophenyl)-3-[3-methoxy-4-(2-methyl-1,3-oxazol-5-yl)phenyl]-5,6,7,8-tetrahydro[1,2,4]triazolo[4,3-a]pyridine], the pIC50 is 7.05.

Take `COc1cc(-c2nnc3n2CCCC3c2ccc(Cl)c(Cl)c2)ccc1-c1cnc(C)o1` (single isomer, unassigned; (+)) [Example 2, (+)-8-(3,4-dichlorophenyl)-3-[3-methoxy-4-(2-methyl-1,3-oxazol-5-yl)phenyl]-5,6,7,8-tetrahydro[1,2,4]triazolo[4,3-a]pyridine]: the pIC50 was 7.47.
